One series has as its target T1, ACAT in J774 cells (Mus musculus, UniProt Q61263).
T1 construct: J774 cells or HepG2 cells were inoculated on a 24-well plate; endogenous in cells; host or cells: J774 cells
T1 sequence (Q61263 1-540): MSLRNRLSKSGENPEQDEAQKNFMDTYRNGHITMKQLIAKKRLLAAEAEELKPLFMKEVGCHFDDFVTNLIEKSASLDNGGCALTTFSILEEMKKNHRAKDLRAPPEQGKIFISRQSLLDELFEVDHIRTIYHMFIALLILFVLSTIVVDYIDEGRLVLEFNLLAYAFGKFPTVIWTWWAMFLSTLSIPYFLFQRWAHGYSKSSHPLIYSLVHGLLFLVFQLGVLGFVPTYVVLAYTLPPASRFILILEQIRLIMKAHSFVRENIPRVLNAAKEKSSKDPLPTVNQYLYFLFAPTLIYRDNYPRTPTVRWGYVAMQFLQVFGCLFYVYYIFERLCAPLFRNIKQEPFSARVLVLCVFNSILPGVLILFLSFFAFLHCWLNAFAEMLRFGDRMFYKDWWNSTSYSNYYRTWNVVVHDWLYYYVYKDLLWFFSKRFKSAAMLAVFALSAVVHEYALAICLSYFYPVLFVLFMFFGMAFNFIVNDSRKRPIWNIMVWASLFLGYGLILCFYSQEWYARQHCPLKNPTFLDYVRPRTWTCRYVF
Description: ACAT inhibitory action (anti-foaming action) in J774 cells, cholesterol ester formation. The note with it: for IC50: J774 cells, 10 μg/ml 25-OH cholesterol, 18-hr culturing, cholesterol ester per protein, read-out: IC50 (μM) of J774-derived enzyme; for IC50 (HepG2)/IC50 (J774): ratio HepG2 / J774. Format: cell-based. How it is done: (§1) J774 cells or HepG2 cells were inoculated on a 24-well plate; J774 cells and HepG2 cells were cultured in DMEM and MEM culture broths (each of the broths containing 10% calf fetus serum), respectively, in a 5% CO2 incubator at 37° C. for 24 hours. […] After discarding the culture media, the resulting cultures were rinsed twice with PBS and extracted with 1.5 ml of hexane:isopropanol (3:2), for concentration and drying. The extracts were dissolved in isopropanol containing 0.2 ml of 10% Triton X-100, to assay total cholesterol (TC) and free cholesterol (FC) by using Cholesterol E Test WAKO (manufactured by Wako Pure Chemicals, Co.) and Free Cholesterol E Test Wako (manufactured by Wako Pure Chemicals, Co.). […] Based on the difference between TC and FC, cholesterol ester was calculated per protein, to determine IC50, compared with the calculated control IC50 value.

The target in series [1] is T2, ACAT, small intestine-derived enzyme (Oryctolagus cuniculus, UniProt G1SFD9).
T2 sequence (G1SFD9 1-524): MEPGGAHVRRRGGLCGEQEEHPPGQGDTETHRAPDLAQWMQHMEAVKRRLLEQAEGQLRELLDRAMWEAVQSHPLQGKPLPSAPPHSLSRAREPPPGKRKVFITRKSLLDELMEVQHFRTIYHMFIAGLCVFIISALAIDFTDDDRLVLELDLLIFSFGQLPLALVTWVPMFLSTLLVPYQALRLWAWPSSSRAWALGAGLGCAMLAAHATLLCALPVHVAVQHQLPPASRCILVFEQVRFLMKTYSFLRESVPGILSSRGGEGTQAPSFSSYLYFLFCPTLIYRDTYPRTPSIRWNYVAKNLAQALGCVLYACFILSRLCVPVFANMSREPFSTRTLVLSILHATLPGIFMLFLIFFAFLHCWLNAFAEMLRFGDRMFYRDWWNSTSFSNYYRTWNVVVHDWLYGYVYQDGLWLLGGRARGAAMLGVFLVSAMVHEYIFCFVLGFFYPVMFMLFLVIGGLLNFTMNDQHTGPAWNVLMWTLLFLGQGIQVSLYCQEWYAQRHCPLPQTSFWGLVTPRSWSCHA
Kind of series: ACAT inhibitory action, small intestine-derived enzyme. Format: biochemical. Conditions: rabbit small intestine enzyme solution, 14C-Oleoyl-CoA, 37° C., 3 minutes. How it is done:
(§2) In a conventional manner, microsome was prepared from the thoracic aorta of a rabbit fed with a 1% cholesterol diet for 8 weeks, which was then suspended in 0.15 M phosphate buffer, pH 7.4, to prepare an enzyme solution. An enzyme solution was prepared from a rabbit small intestine on normal diet, which was defined as an enzyme solution derived from small intestine.
(§3) 10 μl of an enzyme solution was added to the resulting solution for reaction at 37° C. for […] (small intestine-derived enzyme solution was subjected to reaction for 3 minutes). Subsequently, the reaction was terminated by adding 3 ml of chloroform/methanol (2/1) and 0.5 ml of 0.04 N hydrochloric acid to the reaction solution, to extract lipid. The solvent layer was concentrated and dried, which was then dissolved in hexane and spotted on a TLC plate (manufactured by Merck, Co.). The plate was eluted with hexane:ether:acetic acid (75:25:1). The radioactivity of the resulting cholesterol ester fraction was assayed by BAS 2000 (manufactured by Fuji Photo Film, Co., Ltd.). Compared with the radioactivity of a control prepared by single addition of DMSO, IC50 was determined.

Series [2] deals with ACAT, vascular wall-derived enzyme (Oryctolagus cuniculus, UniProt G1SUQ0). Kind of series: ACAT inhibitory action, vascular wall-derived enzyme (microsome from thoracic aorta of cholesterol-fed rabbit). In kind it is biochemical. The note with it: 14C-Oleoyl-CoA, 37° C. How it is done:
as §2, §3

The subject of the next series is ACAT in HepG2 cells. Description: ACAT inhibitory action in HepG2 cells, cholesterol ester formation. Format: cell-based. Conditions: 10 μg/ml 25-OH cholesterol, 18-hr culturing, cholesterol ester per protein, read-out: IC50 (μM) of HepG2-derived enzyme. How it is done:
as §1

Molecules are shown by their SMILES.

13 compounds from patent publication US6362208B1, “Anilide compounds and drugs containing the same” (Kowa Company, Ltd., priority 1997, dated 2002) can be followed below.

Chain of ACAT, vascular wall-derived enzyme (G1SUQ0 entry or part of it): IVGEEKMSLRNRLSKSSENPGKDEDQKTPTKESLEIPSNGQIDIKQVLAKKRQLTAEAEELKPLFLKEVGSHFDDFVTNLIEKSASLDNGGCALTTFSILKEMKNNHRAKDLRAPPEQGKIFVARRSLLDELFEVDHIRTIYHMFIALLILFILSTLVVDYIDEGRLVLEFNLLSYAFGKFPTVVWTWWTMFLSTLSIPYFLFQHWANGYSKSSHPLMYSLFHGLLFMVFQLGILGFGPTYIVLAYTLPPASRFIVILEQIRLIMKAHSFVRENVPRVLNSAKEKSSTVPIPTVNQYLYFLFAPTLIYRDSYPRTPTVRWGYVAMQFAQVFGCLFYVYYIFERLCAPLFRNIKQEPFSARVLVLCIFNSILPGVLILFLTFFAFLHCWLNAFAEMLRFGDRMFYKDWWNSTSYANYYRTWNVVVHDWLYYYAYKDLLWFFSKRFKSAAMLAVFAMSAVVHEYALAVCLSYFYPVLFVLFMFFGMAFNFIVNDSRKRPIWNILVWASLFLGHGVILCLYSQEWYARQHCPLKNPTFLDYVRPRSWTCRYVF

A word on the IC50: it is the concentration that gives 50% inhibition. Consider `CC(C)c1cccc(C(C)C)c1NC(=O)C(C)(C)CCCOc1ccc2c(c1)C=C(c1nccn1C)C(CCc1ccc(F)cc1)O2` (stereo not shown) [Control 1, 5-[2-(2-(4-fluorophenyl)ethyl)-3-(1-methyl-1H-imidazol-2-yl)-2H-1-benzopyran-6-yl]oxy-2,2-dimethyl-N-(2,6-diisopropylphenyl)pentanamide, reference compound], for which, at ACAT in J774 cells, the IC50 is 0.56 µM and the “IC50 (HepG2)/IC50 (J774)” value worked out at 9.5.
For the compound `CCCCCCCCCN(CC(C)(C)C)C(=O)N[C@H]1CCCC[C@@H]1OC(=O)CCNC(=O)C1OC(C)(C)OCC1(C)C` (stereo partly drawn) [Control 3, N-(2,2,5,5-tetramethyl-1,3-dioxan-4-ylcarbonyl)-β-alanine 2(S)-[N′-(2,2-dimethylpropyl)-N′-nonylureido]-1(S)-cyclohexyl ester, reference compound], in series [1], 0.056 µM corresponded to half-maximal inhibition (IC50). Also, on ACAT in J774 cells, the IC50 stood at 0.32 µM and the “IC50 (HepG2)/IC50 (J774)” value is recorded as 4.3.
Take `CCCCCCCN(CCCCCSc1nc(-c2ccccc2)c(-c2ccccc2)[nH]1)c1nc2ccccc2o1` [Control 4, reference compound]: the IC50 was found to be 0.026 µM in series [2], 0.75 µM in the series with ACAT in HepG2 cells, 0.037 µM in series [1] and 0.12 µM on ACAT in J774 cells. In addition, the “IC50 (HepG2)/IC50 (J774)” value on ACAT in J774 cells is 6.3.
As a reminder, the melting point is the temperature of the solid-liquid transition. On to `CC(C)c1cccc(C(C)C)c1NC(=O)CCCCCSc1nc2ncccc2o1` [Example 1, 6-(oxazolo[4,5-b]pyridin-2-ylthio)-N-(2,6-diisopropylphenyl)hexanamide], for which the melting point is 94 to 95 °C. In the series on ACAT in HepG2 cells, the IC50 was 4.1 µM. Moreover, at ACAT in J774 cells, the IC50 was determined as 1.3 µM and the “IC50 (HepG2)/IC50 (J774)” value was found to be 3.2.
Compound `CC(C)c1cccc(C(C)C)c1NC(=O)CCCCCSc1nc2cnccc2[nH]1` [Example 6, 6-(imidazolo[4,5-c]pyridin-2-ylthio)-N-(2,6-diisopropylphenyl)hexanamide] displayed a melting point of 96 to 98 °C. The 50% inhibitory concentration (IC50) in the series on ACAT in HepG2 cells worked out at 10 µM. Besides, at ACAT in J774 cells, the IC50 is 10 µM and the “IC50 (HepG2)/IC50 (J774)” value stood at 1.0.
Turning to `CC(C)c1cccc(C(C)C)c1NC(=O)CCCCCSc1nc2c(CN(C)C)cccc2o1` [Example 27, 6-[4-(N,N-dimethylaminomethyl)benzoxazol-2-ylthio]-N-(2,6-diisopropylphenyl)hexanamide], the melting point lay within 113 to 115 °C. The IC50 on ACAT in J774 cells was 1.31 µM.
On to `CC(C)c1cccc(C(C)C)c1NC(=O)CCCCCSc1nc2c(N(C)C)cccc2o1` [Example 28, 6-(4-N,N-dimethylaminobenzoxazol-2-ylthio)-N-(2,6-diisopropylphenyl)hexanamide], for which the melting point was in the range of 129 to 130 °C. In addition, the IC50 in the series on ACAT in HepG2 cells amounted to 0.42 µM. At ACAT in J774 cells, the IC50 was 0.47 µM and the “IC50 (HepG2)/IC50 (J774)” value is reported as 0.9.
The matching figures for `CC(C)c1cccc(C(C)C)c1NC(=O)CCCCCSc1nc2cc(OCc3ccccc3)ccc2o1` [Example 29, 6-(5-benzyloxybenzoxazol-2-ylthio)-N-(2,6-diisopropylphenyl)hexanamide]: 102 to 104 °C, 1.9 µM, 0.26 µM and 7.3.
The compound `COC(=O)c1ccc2oc(SCCCCCC(=O)Nc3c(C(C)C)cccc3C(C)C)nc2c1` [Example 34, 6-(5-methoxycarbonylbenzoxazol-2-ylthio)-N-(2,6-diisopropylphenyl)hexanamide] returned a melting point of 104 to 106 °C. Further, the IC50 in the series with ACAT in HepG2 cells is 8.15 µM. On ACAT in J774 cells, the IC50 amounted to 0.6 µM and the “IC50 (HepG2)/IC50 (J774)” value is given as 13.5.
As for `CC(C)c1cccc(C(C)C)c1NC(=O)CCCCCSc1nc2cc(N(C)C)ccc2o1` [Example 38, 6-(5-N,N-dimethylaminobenzoxazol-2-ylthio)-N-(2,6-diisopropylphenyl)hexanamide], the melting point is 130 to 132 °C. In addition, the concentration for half-maximal inhibition (IC50) on ACAT in J774 cells amounted to 1.83 µM.
`COC(=O)c1cccc2nc(SCCCCCC(=O)Nc3c(C(C)C)cccc3C(C)C)oc12` [Example 46, 6-(7-methoxycarbonylbenzoxazol-2-ylthio)-N-(2,6-diisopropylphenyl)hexanamide] showed a melting point of 118 to 119 °C. The IC50 in the series with ACAT in HepG2 cells came to 29.8 µM. For the same compound, on ACAT in J774 cells, the IC50 amounted to 0.098 µM and the “IC50 (HepG2)/IC50 (J774)” value was found to be 303.4.
Turning to `CC(C)c1cccc(C(C)C)c1NC(=O)CCCCCCCCSc1nc2cccc(C(F)(F)F)c2o1` [Example 75, 9-(7-trifluoromethylbenzoxazol-2-ylthio)-N-(2,6-diisopropylphenyl)nonanamide], the melting point was in the range of 82 to 84 °C. Further, the IC50 in the series with ACAT in HepG2 cells worked out at 0.089 µM. For the same compound, at ACAT in J774 cells, the IC50 was found to be 0.012 µM and the “IC50 (HepG2)/IC50 (J774)” value is 7.4.
The matching figures for `CC(C)c1cccc(C(C)C)c1NC(=O)CCCCCSc1nc2cccc(-c3cc[nH]n3)c2o1` [Example 88, 6-[7-(pyrazol-3-yl)benzoxazol-2-ylthio]-N-(2,6-diisopropylphenyl)hexanamide]: 174 to 176 °C, 10 µM, 1.64 µM and 6.1.
